From ChEMBL document CHEMBL5724914, “Linking interpersonal differences in gut microbiota composition and drug biotransformation activity” (2024)

Experiments:
[1] = (§1) The drug is tested on Z-029 corresponding to rat gut metagenome with ENA study accession number: PRJEB37062 and ENA sample accession number: ERS12561828 for biotransformation under anaerobic condition. The drug concentrations were measured over 9 timepoints collected between 0 and 24 hours of incubation by liquid-chromatography-coupled mass spectrometry (LC–MS); settings: 2 µM
[2] = as §1, with “on Z-025” for “on Z-029”, “to rabbit” for “to rat”, “number: ERS12561824” for “number: ERS12561828”; settings: 2 µM
[3] = as §1, with “on Z-020” for “on Z-029”, “to rabbit” for “to rat”, “number: ERS12561819” for “number: ERS12561828”; settings: 2 µM
[4] = as §1, with “Z-014” for “Z-029”, “ERS12561814” for “ERS12561828”; settings: 2 µM
[5] = as §1, with “on Z-013” for “on Z-029”, “to rabbit” for “to rat”, “number: ERS12561813” for “number: ERS12561828”; settings: 2 µM
[6] = as §1, with “on Z-003” for “on Z-029”, “to pig” for “to rat”, “number: ERS12561803” for “number: ERS12561828”; settings: 2 µM
[7] = as §1, with “on WLS-350” for “on Z-029”, “to human” for “to rat”, “number: ERS12561789” for “number: ERS12561828”; settings: 2 µM
[8] = as §1, with “on WLS-310” for “on Z-029”, “to human” for “to rat”, “number: ERS12561785” for “number: ERS12561828”; settings: 2 µM
[9] = as §1, with “on WLS-098” for “on Z-029”, “to human” for “to rat”, “number: ERS12561754” for “number: ERS12561828”; settings: 2 µM
[10] = as §1, with “on WLS-077” for “on Z-029”, “to human” for “to rat”, “number: ERS12561750” for “number: ERS12561828”; settings: 2 µM
[11] = as §1, with “on WLS-052” for “on Z-029”, “to human” for “to rat”, “number: ERS12561747” for “number: ERS12561828”; settings: 2 µM
[12] = as §1, with “on WLS-010” for “on Z-029”, “to human” for “to rat”, “number: ERS12561743” for “number: ERS12561828”; settings: 2 µM
[13] = human gut metagenome, 24 h, 2 µM
[14] = human gut metagenome, 24 h, 2 µM; remark: listed apart in the source
[15] = human gut metagenome, 24 h, 2 µM; remark: listed apart in the source
[16] = human gut metagenome, 24 h, 2 µM; remark: listed apart in the source
[17] = human gut metagenome, 24 h, 2 µM; remark: listed apart in the source
[18] = human gut metagenome, 24 h, 2 µM; remark: listed apart in the source
[19] = human gut metagenome, 24 h, 2 µM; remark: listed apart in the source
[20] = human gut metagenome, 24 h, 2 µM; remark: listed apart in the source
Note: call rule not given here.

Compound	Bacterial Biotransformation [1]	Bacterial Biotransformation [2]	Bacterial Biotransformation [3]	Bacterial Biotransformation [4]	Bacterial Biotransformation [5]	Bacterial Biotransformation [6]	Bacterial Biotransformation [7]	Bacterial Biotransformation [8]	Bacterial Biotransformation [9]	Bacterial Biotransformation [10]	Bacterial Biotransformation [11]	Bacterial Biotransformation [12]	Bacterial Biotransformation [13]	Bacterial Biotransformation [14]	Bacterial Biotransformation [15]	Bacterial Biotransformation [16]	Bacterial Biotransformation [17]	Bacterial Biotransformation [18]	Bacterial Biotransformation [19]	Bacterial Biotransformation [20]
C=CC[C@@H]1/C=C(\C)C[C@H](C)C[C@H](OC)[C@H]2O[C@@](O)(C(=O)C(=O)N3CCCC[C@H]3C(=O)O[C@H](/C(C)=C/[C@@H]3CC[C@@H](O)[C@H](OC)C3)[C@H](C)[C@@H](O)CC1=O)[C@H](C)C[C@@H]2OC.O [TACROLIMUS]	Compound NOT metabolized	Compound NOT metabolized	Compound NOT metabolized	Compound NOT metabolized	Compound NOT metabolized	Compound metabolized	Compound NOT metabolized	Compound metabolized	Compound NOT metabolized	Compound metabolized	Compound metabolized	Compound metabolized	Compound metabolized	Compound metabolized	Compound metabolized	Compound metabolized	Compound metabolized	Compound metabolized	Compound metabolized	Compound metabolized
COc1ccc(CN2CCNCC2)c(OC)c1OC.Cl.Cl [TRIMETAZIDINE DIHYDROCHLORIDE]	Compound NOT metabolized	Compound NOT metabolized	Compound NOT metabolized	Compound NOT metabolized	Compound NOT metabolized	Compound NOT metabolized	Compound NOT metabolized	Compound NOT metabolized	Compound NOT metabolized	Compound NOT metabolized	Compound NOT metabolized	Compound NOT metabolized	Compound NOT metabolized	Compound NOT metabolized	Compound NOT metabolized	Compound NOT metabolized	Compound NOT metabolized	Compound NOT metabolized	Compound NOT metabolized	Compound NOT metabolized
CN1[C@@H]2CC[C@H]1C[C@@H](OC(=O)c1c[nH]c3ccccc13)C2 [TROPISETRON]	Compound NOT metabolized	Compound NOT metabolized	Compound NOT metabolized	Compound NOT metabolized	Compound NOT metabolized	Compound NOT metabolized	Compound NOT metabolized	Compound NOT metabolized	Compound NOT metabolized	Compound NOT metabolized	Compound NOT metabolized	Compound NOT metabolized	Compound NOT metabolized	Compound NOT metabolized	Compound NOT metabolized	Compound NOT metabolized	Compound NOT metabolized	Compound NOT metabolized	Compound NOT metabolized	Compound NOT metabolized
